Where no end group is shown, it is not given here.
Columns and labels:
spinal cord neurons = experiment: Cell cultures of spinal neurons; assay type: cell-based, chicken; details: compared with controls
Protocol: Cell Cultures of Spinal Neurons
The spinal cords of 6-day old chicken embryos are dissected, freed of their meningeal membrane and cut into small pieces in a phosphate buffer (PBS) free of calcium and of magnesium. After incubation with 0.25% trypsin for 10 minutes at 37° C., the tissue is centrifuged at 200 g for 4 minutes in a growth medium containing 20% fetal calf serum in order to stop the trypsinization. The cells are then dissociated by repeated trituration using a Pasteur pipette and resuspended in a chemically defined medium free of serum as above.
The cells are plated at a density of 7.5×10^4 cells/cm^2 on 24-well plastic culture plates. The cultures are incubated at 37° C. and under air containing 10% CO2. The medium is not changed during the experiments and it has already been shown that this type of cell population contained more than 93% of neurons.

cortical neuronal cells = experiment: Dissociated cell cultures of cerebral hemispheres of 8-day old chicken embryos (cortical neurons); assay type: cell-based; details: for adherent cells carrying neurites relative to controls (controls 24.4%): 4 days of culture; for overall effect on cortical neuron cultures (aggregation, adhesion, neuritic growth): in comparison with peptide SEQ ID NO: 8
Protocol: Dissociated Cell Cultures of Cerebral Hemispheres of 8-Day Old Chicken Embryos
The neuronal cultures are obtained from 8-day old chicken embryos. The cerebral hemispheres, after removing the meninges, are cut into small pieces and enzymatically dissociated with 0.25% of trypsin in a PBS saline buffer free of calcium and of magnesium for 15 minutes at 37° C.
The cells are centrifuged at 200 g for 5 minutes in DMEM medium with 20% FCS for the trypsin inactivation. The cells are then filtered on nylon membrane (pore size: 48 microns) and collected in a chemically defined medium free of serum containing a 1/1 mixture of DMEM and Ham's F12 medium supplemented with glutamine (4 mM), glucose (33 mM), penicillin G (50 U/ml), streptomycin sulfate (50 μg/ml) and an N2 supplement of Bottenstein and Sato (1979): putrescine (100 μM), sodium selenite (30 nM), human transferrin (50 μg/ml), progesterone (20 nM), insulin (5 μg/ml) and β-estradiol (1 pM). All the N2 supplements were bought from Sigma.
The cells are plated at a density of 7.5×10^4 cells/cm^2 on 24-well plastic plates. For some experiments, the plastic plates are coated either with fibronectin (24 μg/ml) or with thrombospondin (20 μg/ml). The cultures are incubated at 37° C. and under air containing 10% CO2. The medium is not changed during the experiment. These cultures consist of nearly 95% of neurons.
Moreover, the effect of the peptides according to the present invention SEQ ID NO: 8 and NO: 11 on cultures at low density was studied.

[1] = system: NIB104 neuroblastoma cells; experiment: Culture of cells derived from the NIB104 neuroblastoma; assay type: cell-based
Protocol: The cells derived from the NIB104 neuroblastoma were cultured in 24-well plastic plates previously coated with a film of poly-L-lysine, under conditions similar to those for the primary cultures.

[2] = Solubility of the peptide; assay type: physicochemical; details: basic aqueous medium
[3] = low density culture, morphometric analysis
[4] = morphometric analysis, plastic, versus control
[5] = plates coated with thrombospondin and fibronectin, compared with the controls

Substance	neuritic growth and fasciculation of the neurites (spinal cord neurons)	number of synaptic contacts between the neurites (spinal cord neurons)	distribution (aggregation) of the neurons (spinal cord neurons; in vitro)	morphology of the neuronal culture (cortical neuronal cells; after 5 days of culture, plastic substrate coated with the peptide)	increase in the number of neuronal aggregates (cortical neuronal cells; between control culture and culture treated with the peptide) [%]	adherent cells carrying neurites relative to controls (controls 24.4%) (cortical neuronal cells; low density culture) [times]	length of the neurites (cortical neuronal cells; [3])	number of neurites per cell (cortical neuronal cells; [3])	length of the neurites per aggregate (cortical neuronal cells; [4])	number of neurites per aggregate (cortical neuronal cells; [4])	length of the neurites per aggregate (cortical neuronal cells; [5])	number of neurites per aggregate (cortical neuronal cells; [5])	adhesion of the cells to the substrate (cortical neuronal cells; substrate coated with the peptide, 5 days of culture, versus control without peptide)	appearance (phenotype) of the cells ([1]; in the presence of the peptide)	neuritic growth ([1]; increasing concentrations of peptide in the culture medium, morphometric analysis)	number of NIB104 neuroblastoma cells ([1]; versus control cultures)	solubility [2]	overall effect on cortical neuron cultures (aggregation, adhesion, neuritic growth) (cortical neuronal cells)
WSGWSSCSRSCG (cysteine pairing not given here) [peptide SEQ ID NO: 8]	prominent neuritic growths forming a network without fasciculation of the neurites	increase in the number of synaptic contacts	remain distributed for at least one week	aggregate and are essentially connected by bundles of long and thick neurites	9.3	2	significant increase	significant increase	significant increase	significant increase	significantly increased	significantly increased	adhere well to the substrate	acquire a characteristic neuronal phenotype	gradually increases	considerably less numerous	soluble in basic aqueous medium	–
R-K-A-R- (RKAR) [peptide SEQ ID NO: 13, peptide for comparison, reference compound]	–	–	–	–	–	–	–	–	–	–	–	–	–	–	–	–	–	no representative result
W-G-P-C-S-V-S-C-G- (WGPCSVSCG) [peptide SEQ ID NO: 11, second peptide according to the invention]	–	–	–	–	–	2.5	–	not	–	–	–	–	–	–	–	–	–	lower but, nevertheless, significant results
